According to ChEMBL document CHEMBL2203203, “Structure-activity relationships of 2-arylamido-5,7-dihydro-4H-thieno[2,3-c]pyran-3-carboxamide derivatives as cannabinoid receptor agonists and their analgesic action” (Bioorg Med Chem Lett, 2012):

Biological target: T1, Cannabinoid receptor 1 (Homo sapiens, UniProt P21554)
Assay: Agonist activity at human CB1 receptor after 4 hrs by luciferase reporter gene assay
Type: functional

T1 sequence (P21554 whole entry): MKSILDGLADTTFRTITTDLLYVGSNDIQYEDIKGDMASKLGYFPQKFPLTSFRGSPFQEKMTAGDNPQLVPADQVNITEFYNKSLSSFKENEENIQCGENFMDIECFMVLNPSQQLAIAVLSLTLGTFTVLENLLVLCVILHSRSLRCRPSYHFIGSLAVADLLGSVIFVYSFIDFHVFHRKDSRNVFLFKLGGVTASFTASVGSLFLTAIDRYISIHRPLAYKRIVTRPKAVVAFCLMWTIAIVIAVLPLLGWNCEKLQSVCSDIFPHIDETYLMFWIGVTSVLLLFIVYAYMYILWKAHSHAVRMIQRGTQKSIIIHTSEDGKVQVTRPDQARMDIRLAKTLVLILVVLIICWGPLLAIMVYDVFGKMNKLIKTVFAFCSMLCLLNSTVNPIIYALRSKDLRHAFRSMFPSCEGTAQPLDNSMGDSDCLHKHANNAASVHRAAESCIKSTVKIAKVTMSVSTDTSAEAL

| Structure (SMILES) | EC50 [nM] |
| --- | --- |
| CC(C)(C)C(=O)c1c(NC(=O)c2ccccc2OC(F)(F)F)sc2c1CCOC2 | > 10000 |
| O=C(Nc1sc2c(c1C(=O)N1CCOCC1)CCOC2)c1c(F)cccc1C(F)(F)F | 4540 |
| O=C(Nc1sc2c(c1C(=O)N1CCOCC1)CCOC2)c1cccc(OC(F)(F)F)c1 | > 10000 |
| O=C(Nc1sc2c(c1C(=O)N1CCOCC1)CCOC2)c1cccc(Cl)c1 | > 10000 |
| O=C(Nc1sc2c(c1C(=O)NCC1CC1)CCOC2)c1ccccc1OC(F)(F)F | 519 |
| O=C(Nc1sc2c(c1C(=O)N1CCCCC1)CCOC2)c1c(F)cccc1C(F)(F)F | 1000 |
| COc1ccccc1C(=O)Nc1sc2c(c1C(=O)N1CCOCC1)CCOC2 | > 10000 |
| O=C(Nc1sc2c(c1C(=O)N1CCOCC1)CCOC2)c1ccccc1Cl | 3270 |
| COC1CN(C(=O)c2c(NC(=O)c3c(F)cccc3C(F)(F)F)sc3c2CCOC3)C1 | 6610 |
| COCCNC(=O)c1c(NC(=O)CN2CCCCC2)sc2c1CCCC2 | > 10000 |
| CC(C)(C)CC(=O)Nc1sc2c(c1C(=O)N1CCC(F)(F)CC1)C(C)(C)CC2 | > 10000 |
| CC1OCc2sc(NC(=O)CC(C)(C)C)c(C(=O)N3CC(F)(F)C3)c21 (stereo unspecified) | 217 |
| O=C(Nc1sc2c(c1C(=O)N1CCOCC1)CCOC2)c1ccccc1OC(F)(F)F | > 10000 |
| COCCNC(=O)c1c(NC(=O)c2ccccc2Cl)sc2c1CCC2 | > 10000 |
| O=C(Nc1sc2c(c1C(=O)N1CCOCC1)CCOC2)c1ccccc1-c1ccccc1 | > 10000 |
| COCCNC(=O)c1c(NC(=O)C2CCCC2)sc2c1CCCC2 | 8030 |
| COCC(C)(C)NC(=O)c1c(NC(=O)c2ccccc2C(F)(F)F)sc2c1CCOC2 | > 10000 |
| O=C(Nc1sc2c(c1C(=O)NCC1CC1)CCC2)c1ccccc1Cl | > 10000 |
| O=C(Nc1sc2c(c1C(=O)N1CCOCC1)CCOC2)c1ccccc1C(F)(F)F | 1750 |
| COC1CN(C(=O)c2c(NC(=O)CN3CCCCC3)sc3c2CCCC3)C1 | > 10000 |
| COC1CN(C(=O)c2c(NC(=O)c3ccccc3OC(F)(F)F)sc3c2CCOC3)C1 | 1420 |
| O=C(Nc1sc2c(c1C(=O)N1CCOCC1)CCOC2)c1ccccc1OC(F)F | > 10000 |
| CC(C)c1ccccc1C(=O)Nc1sc2c(c1C(=O)N1CCOCC1)CCOC2 | 1500 |
| COCCNC(=O)c1c(NC(=O)C2CCCN2C(=O)C2CC2)sc2c1CCCC2 (stereo unspecified) | > 10000 |
| COCCNC(=O)c1c(NC(=O)C2CCC2)sc2c1CCCC2 | > 10000 |
| O=C(Nc1sc2c(c1C(=O)N1CCOCC1)CCOC2)c1c(Cl)cccc1Cl | 4640 |
| COCCNC(=O)c1c(NC(=O)c2ccccc2Cl)sc2c1CCC(F)(F)C2 | 958 |

Biological target: T2, Cannabinoid receptor 2 (Homo sapiens, UniProt P34972)
T2 sequence (P34972 whole entry): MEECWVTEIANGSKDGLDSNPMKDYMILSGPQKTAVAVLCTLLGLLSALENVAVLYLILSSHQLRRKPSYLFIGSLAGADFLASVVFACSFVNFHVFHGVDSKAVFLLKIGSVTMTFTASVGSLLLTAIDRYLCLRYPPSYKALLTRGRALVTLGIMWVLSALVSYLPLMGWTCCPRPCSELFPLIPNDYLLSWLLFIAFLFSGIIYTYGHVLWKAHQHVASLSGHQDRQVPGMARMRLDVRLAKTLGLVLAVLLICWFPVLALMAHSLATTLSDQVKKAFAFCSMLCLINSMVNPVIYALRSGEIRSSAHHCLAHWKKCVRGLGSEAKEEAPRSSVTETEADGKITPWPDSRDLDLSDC
Assay: Agonist activity at human CB2 receptor after 4 hrs by luciferase reporter gene assay
Type: functional

| Structure (SMILES) | EC50 [nM] |
| --- | --- |
| CC(C)(C)C(=O)c1c(NC(=O)c2ccccc2OC(F)(F)F)sc2c1CCOC2 | 939 |
| O=C(Nc1sc2c(c1C(=O)N1CCOCC1)CCOC2)c1c(F)cccc1C(F)(F)F | 95 |
| O=C(Nc1sc2c(c1C(=O)N1CCOCC1)CCOC2)c1cccc(OC(F)(F)F)c1 | 749 |
| O=C(Nc1sc2c(c1C(=O)N1CCOCC1)CCOC2)c1cccc(Cl)c1 | 1420 |
| O=C(Nc1sc2c(c1C(=O)NCC1CC1)CCOC2)c1ccccc1OC(F)(F)F | 35 |
| O=C(Nc1sc2c(c1C(=O)N1CCCCC1)CCOC2)c1c(F)cccc1C(F)(F)F | 14 |
| COc1ccccc1C(=O)Nc1sc2c(c1C(=O)N1CCOCC1)CCOC2 | > 10000 |
| O=C(Nc1sc2c(c1C(=O)N1CCOCC1)CCOC2)c1ccccc1Cl | 227 |
| COC1CN(C(=O)c2c(NC(=O)c3c(F)cccc3C(F)(F)F)sc3c2CCOC3)C1 | 24 |
| COCCNC(=O)c1c(NC(=O)CN2CCCCC2)sc2c1CCCC2 | 152 |
| CC(C)(C)CC(=O)Nc1sc2c(c1C(=O)N1CCC(F)(F)CC1)C(C)(C)CC2 | 129 |
| CC1OCc2sc(NC(=O)CC(C)(C)C)c(C(=O)N3CC(F)(F)C3)c21 (stereo unspecified) | 6 |
| O=C(Nc1sc2c(c1C(=O)N1CCOCC1)CCOC2)c1ccccc1OC(F)(F)F | 103 |
| COCCNC(=O)c1c(NC(=O)c2ccccc2Cl)sc2c1CCC2 | 137 |
| O=C(Nc1sc2c(c1C(=O)N1CCOCC1)CCOC2)c1ccccc1-c1ccccc1 | 7890 |
| COCCNC(=O)c1c(NC(=O)C2CCCC2)sc2c1CCCC2 | 71 |
| COCC(C)(C)NC(=O)c1c(NC(=O)c2ccccc2C(F)(F)F)sc2c1CCOC2 | 41 |
| O=C(Nc1sc2c(c1C(=O)NCC1CC1)CCC2)c1ccccc1Cl | 106 |
| O=C(Nc1sc2c(c1C(=O)N1CCOCC1)CCOC2)c1ccccc1C(F)(F)F | 35 |
| COC1CN(C(=O)c2c(NC(=O)CN3CCCCC3)sc3c2CCCC3)C1 | 219 |
| COC1CN(C(=O)c2c(NC(=O)c3ccccc3OC(F)(F)F)sc3c2CCOC3)C1 | 38 |
| O=C(Nc1sc2c(c1C(=O)N1CCOCC1)CCOC2)c1ccccc1OC(F)F | 488 |
| CC(C)c1ccccc1C(=O)Nc1sc2c(c1C(=O)N1CCOCC1)CCOC2 | 35 |
| COCCNC(=O)c1c(NC(=O)C2CCCN2C(=O)C2CC2)sc2c1CCCC2 (stereo unspecified) | 344 |
| COCCNC(=O)c1c(NC(=O)C2CCC2)sc2c1CCCC2 | 201 |
| O=C(Nc1sc2c(c1C(=O)N1CCOCC1)CCOC2)c1c(Cl)cccc1Cl | 695 |
| COCCNC(=O)c1c(NC(=O)c2ccccc2Cl)sc2c1CCC(F)(F)C2 | 46 |

Biological target: T1, Cannabinoid receptor 1
Assay: Agonist activity at human CB1 receptor after 4 hrs by luciferase reporter gene assay relative to control
Type: functional

| Structure (SMILES) | Efficacy [%] |
| --- | --- |
| O=C(Nc1sc2c(c1C(=O)N1CCOCC1)CCOC2)c1c(F)cccc1C(F)(F)F | 56 |
| O=C(Nc1sc2c(c1C(=O)NCC1CC1)CCOC2)c1ccccc1OC(F)(F)F | 88 |
| O=C(Nc1sc2c(c1C(=O)N1CCCCC1)CCOC2)c1c(F)cccc1C(F)(F)F | 94 |
| O=C(Nc1sc2c(c1C(=O)N1CCOCC1)CCOC2)c1ccccc1Cl | 85 |
| COC1CN(C(=O)c2c(NC(=O)c3c(F)cccc3C(F)(F)F)sc3c2CCOC3)C1 | 55 |
| CC1OCc2sc(NC(=O)CC(C)(C)C)c(C(=O)N3CC(F)(F)C3)c21 (stereo unspecified) | 94 |
| COCCNC(=O)c1c(NC(=O)C2CCCC2)sc2c1CCCC2 | 61 |
| O=C(Nc1sc2c(c1C(=O)N1CCOCC1)CCOC2)c1ccccc1C(F)(F)F | 84 |
| COC1CN(C(=O)c2c(NC(=O)c3ccccc3OC(F)(F)F)sc3c2CCOC3)C1 | 45 |
| CC(C)c1ccccc1C(=O)Nc1sc2c(c1C(=O)N1CCOCC1)CCOC2 | 105 |
| O=C(Nc1sc2c(c1C(=O)N1CCOCC1)CCOC2)c1c(Cl)cccc1Cl | 78 |
| COCCNC(=O)c1c(NC(=O)c2ccccc2Cl)sc2c1CCC(F)(F)C2 | 97 |

Species: Homo sapiens
Assay: Selectivity ratio of EC50 for human CB1 receptor to EC50 for human CB2 receptor

| Structure (SMILES) | Ratio EC50 |
| --- | --- |
| CC(C)(C)C(=O)c1c(NC(=O)c2ccccc2OC(F)(F)F)sc2c1CCOC2 | > 11 |
| O=C(Nc1sc2c(c1C(=O)N1CCOCC1)CCOC2)c1c(F)cccc1C(F)(F)F | 48 |
| O=C(Nc1sc2c(c1C(=O)N1CCOCC1)CCOC2)c1cccc(OC(F)(F)F)c1 | > 10 |
| O=C(Nc1sc2c(c1C(=O)NCC1CC1)CCOC2)c1ccccc1OC(F)(F)F | 15 |
| O=C(Nc1sc2c(c1C(=O)N1CCCCC1)CCOC2)c1c(F)cccc1C(F)(F)F | 71 |
| O=C(Nc1sc2c(c1C(=O)N1CCOCC1)CCOC2)c1ccccc1Cl | 14 |
| COC1CN(C(=O)c2c(NC(=O)c3c(F)cccc3C(F)(F)F)sc3c2CCOC3)C1 | 275 |
| COCCNC(=O)c1c(NC(=O)CN2CCCCC2)sc2c1CCCC2 | > 65 |
| CC(C)(C)CC(=O)Nc1sc2c(c1C(=O)N1CCC(F)(F)CC1)C(C)(C)CC2 | > 77 |
| CC1OCc2sc(NC(=O)CC(C)(C)C)c(C(=O)N3CC(F)(F)C3)c21 (stereo unspecified) | 36 |
| O=C(Nc1sc2c(c1C(=O)N1CCOCC1)CCOC2)c1ccccc1OC(F)(F)F | > 90 |
| COCCNC(=O)c1c(NC(=O)c2ccccc2Cl)sc2c1CCC2 | > 72 |
| COCCNC(=O)c1c(NC(=O)C2CCCC2)sc2c1CCCC2 | 113 |
| COCC(C)(C)NC(=O)c1c(NC(=O)c2ccccc2C(F)(F)F)sc2c1CCOC2 | > 243 |
| O=C(Nc1sc2c(c1C(=O)NCC1CC1)CCC2)c1ccccc1Cl | > 94 |
| O=C(Nc1sc2c(c1C(=O)N1CCOCC1)CCOC2)c1ccccc1C(F)(F)F | 50 |
| COC1CN(C(=O)c2c(NC(=O)CN3CCCCC3)sc3c2CCCC3)C1 | > 45 |
| COC1CN(C(=O)c2c(NC(=O)c3ccccc3OC(F)(F)F)sc3c2CCOC3)C1 | 37 |
| O=C(Nc1sc2c(c1C(=O)N1CCOCC1)CCOC2)c1ccccc1OC(F)F | > 20 |
| CC(C)c1ccccc1C(=O)Nc1sc2c(c1C(=O)N1CCOCC1)CCOC2 | 42 |
| COCCNC(=O)c1c(NC(=O)C2CCCN2C(=O)C2CC2)sc2c1CCCC2 (stereo unspecified) | > 29 |
| COCCNC(=O)c1c(NC(=O)C2CCC2)sc2c1CCCC2 | > 49 |
| O=C(Nc1sc2c(c1C(=O)N1CCOCC1)CCOC2)c1c(Cl)cccc1Cl | 7 |
| COCCNC(=O)c1c(NC(=O)c2ccccc2Cl)sc2c1CCC(F)(F)C2 | 21 |

Biological target: T2, Cannabinoid receptor 2
Assay: Agonist activity at human CB2 receptor after 4 hrs by luciferase reporter gene assay relative to control
Type: functional

| Structure (SMILES) | Efficacy [%] |
| --- | --- |
| CC(C)(C)C(=O)c1c(NC(=O)c2ccccc2OC(F)(F)F)sc2c1CCOC2 | 102 |
| O=C(Nc1sc2c(c1C(=O)N1CCOCC1)CCOC2)c1c(F)cccc1C(F)(F)F | 100 |
| O=C(Nc1sc2c(c1C(=O)N1CCOCC1)CCOC2)c1cccc(OC(F)(F)F)c1 | 77 |
| O=C(Nc1sc2c(c1C(=O)N1CCOCC1)CCOC2)c1cccc(Cl)c1 | 98 |
| O=C(Nc1sc2c(c1C(=O)NCC1CC1)CCOC2)c1ccccc1OC(F)(F)F | 94 |
| O=C(Nc1sc2c(c1C(=O)N1CCCCC1)CCOC2)c1c(F)cccc1C(F)(F)F | 103 |
| O=C(Nc1sc2c(c1C(=O)N1CCOCC1)CCOC2)c1ccccc1Cl | 112 |
| COC1CN(C(=O)c2c(NC(=O)c3c(F)cccc3C(F)(F)F)sc3c2CCOC3)C1 | 100 |
| COCCNC(=O)c1c(NC(=O)CN2CCCCC2)sc2c1CCCC2 | 98 |
| CC(C)(C)CC(=O)Nc1sc2c(c1C(=O)N1CCC(F)(F)CC1)C(C)(C)CC2 | 96 |
| CC1OCc2sc(NC(=O)CC(C)(C)C)c(C(=O)N3CC(F)(F)C3)c21 (stereo unspecified) | 105 |
| O=C(Nc1sc2c(c1C(=O)N1CCOCC1)CCOC2)c1ccccc1OC(F)(F)F | 106 |
| COCCNC(=O)c1c(NC(=O)c2ccccc2Cl)sc2c1CCC2 | 52 |
| O=C(Nc1sc2c(c1C(=O)N1CCOCC1)CCOC2)c1ccccc1-c1ccccc1 | 63 |
| COCCNC(=O)c1c(NC(=O)C2CCCC2)sc2c1CCCC2 | 81 |
| COCC(C)(C)NC(=O)c1c(NC(=O)c2ccccc2C(F)(F)F)sc2c1CCOC2 | 93 |
| O=C(Nc1sc2c(c1C(=O)NCC1CC1)CCC2)c1ccccc1Cl | 76 |
| O=C(Nc1sc2c(c1C(=O)N1CCOCC1)CCOC2)c1ccccc1C(F)(F)F | 102 |
| COC1CN(C(=O)c2c(NC(=O)CN3CCCCC3)sc3c2CCCC3)C1 | 92 |
| COC1CN(C(=O)c2c(NC(=O)c3ccccc3OC(F)(F)F)sc3c2CCOC3)C1 | 100 |
| O=C(Nc1sc2c(c1C(=O)N1CCOCC1)CCOC2)c1ccccc1OC(F)F | 96 |
| CC(C)c1ccccc1C(=O)Nc1sc2c(c1C(=O)N1CCOCC1)CCOC2 | 101 |
| COCCNC(=O)c1c(NC(=O)C2CCCN2C(=O)C2CC2)sc2c1CCCC2 (stereo unspecified) | 88 |
| COCCNC(=O)c1c(NC(=O)C2CCC2)sc2c1CCCC2 | 101 |
| O=C(Nc1sc2c(c1C(=O)N1CCOCC1)CCOC2)c1c(Cl)cccc1Cl | 76 |
| COCCNC(=O)c1c(NC(=O)c2ccccc2Cl)sc2c1CCC(F)(F)C2 | 105 |
